Results reported in US9815850B2, “Compounds, compositions and methods” (Denali Therapeutics Inc., priority 2016, dated 2017).

molecular target: GST-hRIPK1 (8-327) (Homo sapiens (Human), UniProt Q13546); assay: Fluorescent Polarization Binding (FP Binding) assay; conditions: 10 nM GST-hRIPK1 (8-327), 5 nM fluorescent labeled ligand; read-out: FP IC50
Method: Fluorescent Polarization Binding (FP Binding) assay (Berger S. B. et al. […] Maki J. L. et al. […] Test Compounds were serially diluted in DMSO at 100 fold final concentrations in the assay (1% DMSO final). […] For negative control the enzyme addition was replaced by assay buffer only. After addition of 5 μL of fluorescent labeled ligand at twice the final concentrations in assay buffer, the plate was incubated at RT for 30 min.

Chain of GST-hRIPK1 (8-327) (Q13546 8-327): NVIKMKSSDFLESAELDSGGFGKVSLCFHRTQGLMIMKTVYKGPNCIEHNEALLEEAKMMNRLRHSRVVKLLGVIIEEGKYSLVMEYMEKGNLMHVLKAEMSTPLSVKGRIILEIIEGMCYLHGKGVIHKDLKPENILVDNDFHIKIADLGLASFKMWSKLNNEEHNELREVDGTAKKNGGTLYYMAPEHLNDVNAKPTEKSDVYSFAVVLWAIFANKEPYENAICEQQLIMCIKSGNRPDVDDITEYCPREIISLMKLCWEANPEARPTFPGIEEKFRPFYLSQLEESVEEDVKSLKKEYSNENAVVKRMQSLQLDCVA

| IC50 [nM] | Compound |
| --- | --- |
| 1000 to 10000 | CN1C(=O)[C@H](NC(=O)c2nnc(Cc3ccccc3)[nH]2)C[C@H](F)c2ccccc21 (mixture of isomers) [Example 11B] |
| 0.1 to 1000 | CN1C(=O)[C@@H](NC(=O)c2cc(Cc3ccccc3)on2)CCc2sc(Cl)cc21 (stereo in doubt) [Example 1A, 5-Benzyl-N-(2-chloro-4-methyl-5-oxo-4H,5H,6H,7H,8H-thieno[3,2-b]azepin-6-yl)-1,2-oxazole-3-carboxamide] |
| 0.1 to 1000 | CN1C(=O)[C@H](NC(=O)c2cc(Cc3ccccc3)on2)CCc2sc(Cl)cc21 (stereo in doubt) [Example 1B, 5-Benzyl-N-(2-chloro-4-methyl-5-oxo-4H,5H,6H,7H,8H-thieno[3,2-b]azepin-6-yl)-1,2-oxazole-3-carboxamide] |
| 0.1 to 1000 | CN1C(=O)C(NC(=O)c2cc(Cc3ccccc3)on2)CC(F)c2ccccc21 (stereo not shown) [Example 2B, 5-benzyl-N-(5-fluoro-1-methyl-2-oxo-2,3,4,5-tetrahydro-1H-benzo[b]azepin-3-yl)isoxazole-3-carboxamide] |
| 0.1 to 1000 | CN1C(=O)[C@@H](NC(=O)c2nnc(Cc3ccccc3)[nH]2)C[C@@H](F)c2ccccc21 [Example 11A] |
| 0.1 to 1000 | CN1C(=O)[C@@H](NC(=O)c2nnc(Cc3ccccc3)[nH]2)C[C@H](F)c2ccccc21 [Example 12A] |
| 0.1 to 1000 | CN1C(=O)[C@H](NC(=O)c2nnc(Cc3ccccc3)[nH]2)C[C@@H](F)c2ccccc21 [Example 12B] |
| 0.1 to 1000 | CN1C(=O)[C@@H](NC(=O)c2cc(Cc3ccccc3)[nH]n2)CC2(CC2)c2ccccc21 [Example 59, 5-benzyl-N-[(3S)-1-methyl-2-oxo-1,2,3,4-tetrahydrospiro[l-benzazepine-5,1-cyclopropane]-3-yl]-1H-pyrazole-3-carboxamide] |
| 0.1 to 1000 | O=C(N[C@H]1COc2cccnc2NC1=O)c1cc(C2(c3ccccc3)CC2)on1 [Example 62, (S)—N-(4-oxo-2,3,4,5-tetrahydropyrido[3,2-b][1,4]oxazepin-3-yl)-5-(1-phenylcyclopropyl)isoxazole-3-carboxamide] |
| 0.1 to 1000 | CN1C(=O)[C@@H](NC(=O)c2ncc(C3(c4ccccc4)CC3)s2)COc2cccnc21 [Example 63, (S)—N-(5-methyl-4-oxo-2,3,4,5-tetrahydropyrido[3,2-b][1,4]oxazepin-3-yl)-5-(1-phenylcyclopropyl)thiazole-2-carboxamide] |
| 0.1 to 1000 | CN1C(=O)[C@@H](NC(=O)c2nnc(Cc3ccccc3)[nH]2)[C@@H]2C[C@@H]2c2ccccc21 [Example 67A, 5-benzyl-N-((1aR,2S,8bS)-4-methyl-3-oxo-1,1a,2,3,4,8b-hexahydrobenzo[b]cyclopropa[d]azepin-2-yl)-4H-1,2,4-triazole-3-carboxamide] |
| > 3000 | CN1C(=O)[C@H](NC(=O)c2nnc(Cc3ccccc3)[nH]2)[C@H]2C[C@H]2c2ccccc21 [Example 67B, 5-benzyl-N-((1aS,2R,8bR)-4-methyl-3-oxo-1,1a,2,3,4,8b-hexahydrobenzo[b]cyclopropa[d]azepin-2-yl)-4H-1,2,4-triazole-3-carboxamide] |
| 0.1 to 1000 | O=C(N[C@H]1COc2ccccc2-n2ccnc21)c1nnc(Cc2ccccc2)[nH]1 [Example 68A, (R)-5-benzyl-N-(4,5-dihydrobenzo[b]imidazo[1,2-d][1,4]oxazepin-4-yl)-4H-1,2,4-triazole-3-carboxamide] |
| > 3000 | O=C(N[C@@H]1COc2ccccc2-n2ccnc21)c1nnc(Cc2ccccc2)[nH]1 [Example 68B, (S)-5-benzyl-N-(4,5-dihydrobenzo[b]imidazo[1,2-d][1,4]oxazepin-4-yl)-4H-1,2,4-triazole-3-carboxamide] |
| 0.1 to 1000 | CN1C(=O)[C@@H](NC(=O)c2cc(C3(c4ccccc4)CC3)[nH]n2)COc2ccccc21 [Example 72, (S)—N-(5-methyl-4-oxo-2,3,4,5-tetrahydrobenzo[b][1,4]oxazepin-3-yl)-5-(1-phenylcyclopropyl)-1H-pyrazole-3-carboxamide] |
| 0.1 to 1000 | CN1C(=O)[C@@H](NC(=O)c2cc(C3(c4ccccc4)CC3)[nH]n2)COc2cccnc21 [Example 73, (S)—N-(5-methyl-4-oxo-2,3,4,5-tetrahydropyrido[3,2-b][1,4]oxazepin-3-yl)-5-(1-phenylcyclopropyl)-1H-pyrazole-3-carboxamide] |
| 0.1 to 1000 | CN1C(=O)[C@@H](NC(=O)c2nn(Cc3ccccn3)cc2F)COc2cccnc21 [Example 74, (S)-4-fluoro-N-(5-methyl-4-oxo-2,3,4,5-tetrahydropyrido[3,2-b][1,4]oxazepin-3-yl)-1-(pyridin-2-ylmethyl)-1H-pyrazole-3-carboxamide] |
| > 3000 | CN1C(=O)[C@H](NC(=O)c2nnc(Cc3ccccc3)[nH]2)[C@@H]2C[C@@H]2c2cccnc21 [Example 75B, 5-benzyl-N-((1aR,2R,8bS)-4-methyl-3-oxo-1,1a,2,3,4,8b-hexahydrocyclopropa[d]pyrido[2,3-b]azepin-2-yl)-4H-1,2,4-triazole-3-carboxamide] |
| 0.1 to 1000 | CN1C(=O)[C@@H](NC(=O)c2ncc(C3(c4ccccc4)CC3)[nH]2)COc2ccccc21 [Example 78, (S)—N-(5-methyl-4-oxo-2,3,4,5-tetrahydrobenzo[b][1,4]oxazepin-3-yl)-5-(1-phenylcyclopropyl)-1H-imidazole-2-carboxamide] |
| 0.1 to 1000 | CN1C(=O)[C@@H](NC(=O)c2cc(Cc3ccccc3)[nH]n2)[C@H]2C[C@H]2c2cccnc21 [Example 80A, 5-benzyl-N-((1aS,2S,8bR)-4-methyl-3-oxo-1,1a,2,3,4,8b-hexahydrocyclopropa[d]pyrido[2,3-b]azepin-2-yl)-1H-pyrazole-3-carboxamide] |

| Compound | IC50 [nM] |
| --- | --- |
| CN1C(=O)C(NC(=O)c2cc(Cc3ccccc3)on2)[C@@H]2C[C@@H]2c2ccccc21 (stereo in doubt) [Example 7B, 5-benzyl-N-((2S)-4-methyl-3-oxo-1,1a,2,3,4,8b-hexahydrobenzo[b]cyclopropa[d]azepin-2-yl)isoxazole-3-carboxamide] | > 10000 |
| CN1C(=O)[C@@H](NC(=O)c2cc(Cc3ccccc3)on2)[C@H]2C[C@H]2c2ccccc21 [Example 7A, 5-benzyl-N-((2S)-4-methyl-3-oxo-1,1a,2,3,4,8b-hexahydrobenzo[b]cyclopropa[d]azepin-2-yl)isoxazole-3-carboxamide] | 0.1 to 1000 |
| CN1C(=O)[C@@H](NC(=O)c2cc(Cc3ccccc3)[nH]n2)[C@H]2C[C@H]2c2ccccc21 [Example 60A, 5-benzyl-N-((1aS,2S,8bR)-4-methyl-3-oxo-1,1a,2,3,4,8b-hexahydrobenzo[b]cyclopropa[d]azepin-2-yl)-1H-pyrazole-3-carboxamide] | 0.1 to 1000 |
| CN1C(=O)[C@H](NC(=O)c2cc(Cc3ccccc3)[nH]n2)[C@@H]2C[C@@H]2c2ccccc21 [Example 60B, 5-benzyl-N-((1aR,2R,8bS)-4-methyl-3-oxo-1,1a,2,3,4,8b-hexahydrobenzo[b]cyclopropa[d]azepin-2-yl)-1H-pyrazole-3-carboxamide] | > 3000 |
| CN1C(=O)[C@@H](NC(=O)c2coc(C3(c4ccccc4)CC3)n2)COc2ccccc21 [Example 61, (S)—N-(5-methyl-4-oxo-2,3,4,5-tetrahydrobenzo[b][1,4]oxazepin-3-yl)-2-(1-phenylcyclopropyl)oxazole-4-carboxamide] | 0.1 to 1000 |
| CN1C(=O)[C@@H](NC(=O)c2nn(Cc3ccccc3)cc2F)COc2ccccc21 [Example 64, (S)-1-benzyl-4-fluoro-N-(5-methyl-4-oxo-2,3,4,5-tetrahydrobenzo[b][1,4]oxazepin-3-yl)-1H-pyrazole-3-carboxamide] | 0.1 to 1000 |
| O=C(N[C@H]1CCc2ccccc2-n2cnnc21)c1nnc(Cc2ccccc2)[nH]1 [Example 69A, (S)-5-benzyl-N-(5,6-dihydro-4H-benzo[f][1,2,4]triazolo[4,3-a]azepin-4-yl)-4H-1,2,4-triazole-3-carboxamide] | 0.1 to 1000 |
| O=C(N[C@@H]1CCc2ccccc2-n2cnnc21)c1nnc(Cc2ccccc2)[nH]1 [Example 69B, (R)-5-benzyl-N-(5,6-dihydro-4H-benzo[f][1,2,4]triazolo[4,3-a]azepin-4-yl)-4H-1,2,4-triazole-3-carboxamide] | > 3000 |
| O=C(N[C@H]1COc2ccccc2-n2ccnc21)c1cc(Cc2ccccc2)on1 [Example 70A, (R)-5-benzyl-N-(4,5-dihydrobenzo[b]imidazo[1,2-d][1,4]oxazepin-4-yl)isoxazole-3-carboxamide] | 0.1 to 1000 |
| O=C(N[C@@H]1COc2ccccc2-n2ccnc21)c1cc(Cc2ccccc2)on1 [Example 70B, (S)-5-benzyl-N-(4,5-dihydrobenzo[b]imidazo[1,2-d][1,4]oxazepin-4-yl)isoxazole-3-carboxamide] | > 3000 |
| O=C(N[C@H]1CCc2ccccc2-n2cnnc21)c1cc(Cc2ccccc2)on1 [Example 71A, (S)-5-benzyl-N-(5,6-dihydro-4H-benzo[f][1,2,4]triazolo[4,3-a]azepin-4-yl)isoxazole-3-carboxamide] | 0.1 to 1000 |
| O=C(N[C@@H]1CCc2ccccc2-n2cnnc21)c1cc(Cc2ccccc2)on1 [Example 71B, (R)-5-benzyl-N-(5,6-dihydro-4H-benzo[f][1,2,4]triazolo[4,3-a]azepin-4-yl)isoxazole-3-carboxamide] | > 3000 |
| CN1C(=O)[C@@H](NC(=O)c2nn(Cc3ccccc3)cc2F)COc2cccnc21 [Example 76, (S)-1-benzyl-4-fluoro-N-(5-methyl-4-oxo-2,3,4,5-tetrahydropyrido[3,2-b][1,4]oxazepin-3-yl)-1H-pyrazole-3-carboxamide] | 0.1 to 1000 |
| CN1C(=O)[C@@H](NC(=O)c2nc3cccc(-c4ccccc4F)c3s2)COc2ccccc21 [Example 79, (S)-7-(2-fluorophenyl)-N-(5-methyl-4-oxo-2,3,4,5-tetrahydrobenzo[b][1,4]oxazepin-3-yl)benzo[d]thiazole-2-carboxamide] | 0.1 to 1000 |
